Assay results: patent US4208417A, “Indole derivatives and their use as anxiolytics” (Pharmindustrie, priority 1978, dated 1980)
Where two headings read alike, the source gives them in different places.

Experiments:
[1] = Acute toxicity in mice (LD50); format: in vivo; settings: mouse, in vivo
Source text: (§1) The following Table 2 contains values already given in U.S. Pat. No. 4,064,255 and supplies additional values obtained according to the same procedure.

[2] = target: benzodiazepine receptor (^3 H-diazepam binding sites, rat brain membranes)
Method: This efficacy is measured by Ki values in micro moles calculated by using the equation:
C=the concentration of ^3 H-diazepam,
KD =the affinity constant=2,74 μM, and
IC50 =the concentration causing 50% inhibition of ^3 H-diazepam binding.

[3] = system: Mice; test: Acute toxicity in mice (LD50); format: in vivo
Source text: as §1

[4] = iv, I.V., read-out: Acute toxicity LD50, I.V.
[5] = po, orally, read-out: Acute toxicity LD50, orally

Compound	LD50 [1, 4] [mg/kg]	LD50 [1, 5] [mg/kg]	Ki [2] [µM]	Acute toxicity LD50, I.V. [3] [mg/kg]	Acute toxicity LD50, orally [3] [mg/kg]
O=C(CC1CCNCC1)c1c[nH]c2ccccc12 [Example 1, Indolyl-3-(piperidyl-4-methyl)ketone]	47	300 to 900	43		
COc1ccc2[nH]cc(CCC3CCNCC3)c2c1 [Example 8, [(Methoxy-5 indolyl-3)-2 ethyl]-4 piperidine]	41	675	40		
Cn1cc(CCC2CCNCC2)c2ccccc21 [Example 9, [(Methyl-1 indolyl-3)-2 ethyl]-4 piperidine]			90	44	225
c1ccc2c(CCC3CCNCC3)c[nH]c2c1 [Example 10, [(Indolyl-3)-2 ethyl]-4 piperidine]			64	60	600
c1ccc2c(CC3CCNCC3)c[nH]c2c1 [Example 11, (Indolyl-3 methyl)-4 piperidine]			90	57	225
Clc1ccc2[nH]cc(CCC3CCNCC3)c2c1 [Example 12, [(Chloro-5 indolyl-3)-2 ethyl]-4 piperidine]	85	625	37		
c1ccc2c(CCCC3CCNCC3)c[nH]c2c1 [Example 13, [(Indolyl-3)-3 propyl]-4 piperidine]	29	600	70		
c1ccc(Cn2cc(CCC3CCNCC3)c3ccccc32)cc1 [Example 14, [(Benzyl-1 indolyl-3)-2 ethyl]-4 piperidine]	33	525	33		
